SMILES strings stand for the structures. In brackets after ≈: the same amount, converted by molar mass.

Holding throughout (type): functional
Test [1] relates to Human alphaherpesvirus 1. The test is described as follows: Minimal inhibitory concentration to reduce virus-induced cytopathicity against TK-/TK+ HSV-1 of VMW 837. (In general: Cytopathic effects are the visible damage that an infection or toxin causes in cultured cells.)
Test [2] has as its system Human alphaherpesvirus 2. Put plainly: Minimal inhibitory concentration to reduce virus-induced cytopathicity against G strain of human Herpes Simplex Virus-2.
Test [3] deals with Vesicular stomatitis virus. The test is described as follows: Minimal inhibitory concentration to reduce virus-induced cytopathicity against VSV.
The subject of test [4] is Human alphaherpesvirus 1. Put plainly: Minimal inhibitory concentration to reduce virus-induced cytopathicity against McIntyre strain of human Herpes Simplex Virus-1.
Test [5] can be described thus: Minimal cytotoxic concentration (MCC) to cause a microscopically detectable change in normal cell morphology.
The test system of the next test is Vaccinia virus. The test is described as follows: Minimal inhibitory concentration to reduce virus-induced cytopathicity against VV. As to conditions: Orthopoxvirus vaccinia.
For test [6], the system named is Human alphaherpesvirus 2. Put plainly: Minimal inhibitory concentration to reduce virus-induced cytopathicity against 196 strain of human Herpes Simplex Virus-2.
For test [7], the system named is Human alphaherpesvirus 2. The test is described as follows: Minimal inhibitory concentration to reduce virus-induced cytopathicity against Lyons strain of human Herpes Simplex Virus-2.
For test [8], the system named is Human alphaherpesvirus 1. The test is described as follows: Minimal inhibitory concentration to reduce virus-induced cytopathicity against KOS strain of human Herpes Simplex Virus -1.
Test [9] relates to Human alphaherpesvirus 1. Put plainly: Minimal inhibitory concentration to reduce virus-induced cytopathicity against F strain of human Herpes Simplex Virus-1 (HSV-1).
Test [10] has as its system Human alphaherpesvirus 1. The test is described as follows: Minimal inhibitory concentration to reduce virus-induced cytopathicity against Thymidine kinase deficient(TK-) HSV-1 of Acyclovir.
[11] abbreviates: Human alphaherpesvirus 2, read-out: MIC.
Setting [12] is: Human alphaherpesvirus 1, read-out: MIC.

`COc1ccc(-c2cn3c(O)c4ncn(COC(CO)CO)c4nc3n2)cc1`: the MIC is 0.04 µg/mL (≈ 0.104 µM) in the test with Human alphaherpesvirus 1 [1]; 0.03 µg/mL (≈ 0.0778 µM) in the test on Human alphaherpesvirus 2 [2] (setting [11]); over 80 µg/mL in test [3]; 0.005 µg/mL (≈ 0.013 µM) in the test with Human alphaherpesvirus 1 [4]; over 80 µg/mL against Vaccinia virus; 0.08 µg/mL (≈ 0.208 µM) with Human alphaherpesvirus 2 [6]. Further, the MIC in the test on Human alphaherpesvirus 2 [7] is 0.02 µg/mL (≈ 0.0519 µM); against Human alphaherpesvirus 1 [8], 0.005 µg/mL (≈ 0.013 µM); with Human alphaherpesvirus 1 [9] (setting [12]), 0.005 µg/mL (≈ 0.013 µM); against Human alphaherpesvirus 1 [10] it was over 16 µg/mL. The MCC in test [5] was over 80 µg/mL.
As to `Cc1c(-c2ccccc2)nc2nc3c(ncn3COCCO)c(O)n12`, the MIC against Human alphaherpesvirus 1 [1] is 3.2 µg/mL (≈ 9.43 µM); with Human alphaherpesvirus 2 [2] (setting [11]), 0.16 µg/mL (≈ 0.471 µM); in [3], over 200 µg/mL; with Human alphaherpesvirus 1 [4] it was 0.06 µg/mL (≈ 0.177 µM); with Vaccinia virus, over 200 µg/mL; against Human alphaherpesvirus 2 [6] it was 0.1 µg/mL (≈ 0.295 µM). Besides, the MIC came out at 0.07 µg/mL (≈ 0.206 µM) in the test with Human alphaherpesvirus 2 [7], 0.11 µg/mL (≈ 0.324 µM) against Human alphaherpesvirus 1 [8], 0.04 µg/mL (≈ 0.118 µM) in the test on Human alphaherpesvirus 1 [9] (setting [12]) and 3.2 µg/mL (≈ 9.43 µM) in the test on Human alphaherpesvirus 1 [10]. In test [5], this compound yielded an MCC of 300 µg/mL.
On to `O=c1c2ncn(COCCO)c2nc2n(Cc3ccccc3)c(-c3ccccc3)cn12`, for which the MIC (in the test with Human alphaherpesvirus 1 [1]; against Human alphaherpesvirus 2 [2]; in test [3]; in the test with Vaccinia virus; in the test with Human alphaherpesvirus 1 [8]; in the test on Human alphaherpesvirus 1 [10]) was over 100 µg/mL each time. Besides, the MCC in [5] is over 100 µg/mL.
On to `CCc1cn2c(O)c3ncn(COCCO)c3nc2n1`, for which the MIC was 48 µg/mL (≈ 173 µM) with Human alphaherpesvirus 1 [1]; 9.6 µg/mL (≈ 34.6 µM) with Human alphaherpesvirus 2 [2] (setting [11]); over 400 µg/mL in [3]; 9.6 µg/mL (≈ 34.6 µM) against Human alphaherpesvirus 1 [4]; 240 µg/mL (≈ 866 µM) against Vaccinia virus; 9.6 µg/mL (≈ 34.6 µM) in the test with Human alphaherpesvirus 2 [6]. Also, the MIC against Human alphaherpesvirus 2 [7] is 9.6 µg/mL (≈ 34.6 µM); against Human alphaherpesvirus 1 [8] it was 1.92 µg/mL (≈ 6.92 µM); in the test with Human alphaherpesvirus 1 [9] (setting [12]), 9.6 µg/mL (≈ 34.6 µM); in the test with Human alphaherpesvirus 1 [10], 240 µg/mL (≈ 866 µM). In test [5], this compound had an MCC of over 400 µg/mL.
In the case of `OCCOCn1cnc2c(O)n3c(-c4ccc(C(c5ccccc5)c5ccccc5)cc4)c(-c4ccccc4)nc3nc21`, the MIC (against Human alphaherpesvirus 1 [1]; in the test with Human alphaherpesvirus 2 [2] (setting [11]); in test [3]; in the test on Human alphaherpesvirus 1 [4]; in the test on Vaccinia virus; with Human alphaherpesvirus 2 [6]) was over 16 µg/mL each time. Besides, the MIC with Human alphaherpesvirus 2 [7], in the test with Human alphaherpesvirus 1 [8], with Human alphaherpesvirus 1 [9] (setting [12]) and with Human alphaherpesvirus 1 [10] was over 16 µg/mL each time. Moreover, the MCC in test [5] is 80 µg/mL.
Regarding `O=[N+]([O-])c1ccc(-c2cn3c(O)c4ncn(COCCO)c4nc3n2)cc1`, the MIC in the test with Human alphaherpesvirus 1 [1] was over 16 µg/mL; with Human alphaherpesvirus 2 [2] (setting [11]) it was 9.6 µg/mL (≈ 25.9 µM); in test [3] it was over 16 µg/mL; in the test with Human alphaherpesvirus 1 [4], 16 µg/mL (≈ 43.2 µM); against Vaccinia virus it was over 16 µg/mL; in the test with Human alphaherpesvirus 2 [6] it was over 16 µg/mL. For the same compound, the MIC was over 16 µg/mL with Human alphaherpesvirus 2 [7], 9.6 µg/mL (≈ 25.9 µM) in the test on Human alphaherpesvirus 1 [8], 16 µg/mL (≈ 43.2 µM) with Human alphaherpesvirus 1 [9] (setting [12]) and over 16 µg/mL against Human alphaherpesvirus 1 [10]. The compound further had an MCC in test [5] of 80 µg/mL.
Take `OCCOCn1cnc2c(O)n3cc(-c4ccccc4)nc3nc21`: the MIC in the test on Human alphaherpesvirus 1 [1] is over 70 µg/mL; with Human alphaherpesvirus 2 [2] (setting [11]), 1.3 µg/mL (≈ 4 µM); in test [3], over 100 µg/mL; against Human alphaherpesvirus 1 [4], 0.2 µg/mL (≈ 0.615 µM); with Vaccinia virus, over 100 µg/mL; in the test on Human alphaherpesvirus 2 [6], 0.2 µg/mL (≈ 0.615 µM). For the same compound, the MIC against Human alphaherpesvirus 2 [7] stood at 0.7 µg/mL (≈ 2.15 µM); in the test with Human alphaherpesvirus 1 [8], 0.4 µg/mL (≈ 1.23 µM); with Human alphaherpesvirus 1 [9] (setting [12]) it was 0.7 µg/mL (≈ 2.15 µM). Besides, the MCC in [5] is over 100 µg/mL.
On to `OCCOCn1cnc2c(O)n3ccnc3nc21`, for which the MIC in the test on Human alphaherpesvirus 2 [2] (setting [11]) was determined as 20 µg/mL (≈ 80.2 µM); against Human alphaherpesvirus 1 [4], 20 µg/mL (≈ 80.2 µM); against Vaccinia virus, 400 µg/mL (≈ 1600 µM); against Human alphaherpesvirus 2 [6], 70 µg/mL (≈ 281 µM); in the test on Human alphaherpesvirus 2 [7] it was 10 µg/mL (≈ 40.1 µM); with Human alphaherpesvirus 1 [8], 20 µg/mL (≈ 80.2 µM). The MIC stood at 4 pug ml-1 in the test on Human alphaherpesvirus 1 [9] and 400 µg/mL (≈ 1600 µM) against Human alphaherpesvirus 1 [10]. In [5], this compound displayed an MCC of 400 µg/mL.
As for `COc1ccc(-c2cn3c(O)c4ncn(COCCO)c4nc3n2)c(OC)c1`, the MIC with Human alphaherpesvirus 1 [1] turned out to be 1.92 µg/mL (≈ 4.98 µM); with Human alphaherpesvirus 2 [2] (setting [11]), 3.2 µg/mL (≈ 8.3 µM); in [3], 16 µg/mL (≈ 41.5 µM); with Human alphaherpesvirus 1 [4] it was 1.92 µg/mL (≈ 4.98 µM); against Vaccinia virus it was 16 µg/mL (≈ 41.5 µM); against Human alphaherpesvirus 2 [6], 1.92 µg/mL (≈ 4.98 µM). The MIC in the test with Human alphaherpesvirus 2 [7] is 1.92 µg/mL (≈ 4.98 µM); in the test on Human alphaherpesvirus 1 [8] it was 1.92 µg/mL (≈ 4.98 µM); in the test with Human alphaherpesvirus 1 [9] (setting [12]), 1.92 µg/mL (≈ 4.98 µM); against Human alphaherpesvirus 1 [10], over 16 µg/mL. Also, the MCC in test [5] is 80 µg/mL.
As to `Cc1nc2nc3c(ncn3COCCO[Si](C)(C)C(C)(C)C)c(O)n2c1C(c1ccccc1)(c1ccccc1)c1ccccc1`, the MIC with Human alphaherpesvirus 1 [1] is over 10 µg/mL; with Human alphaherpesvirus 2 [2] (setting [11]), over 10 µg/mL; in test [3] it was over 10 µg/mL; against Vaccinia virus it was 2 µg/mL (≈ 3.23 µM); with Human alphaherpesvirus 1 [8], over 10 µg/mL; in the test with Human alphaherpesvirus 1 [10] it was over 10 µg/mL. Also, in test [5], the MCC amounted to 40 µg/mL.
For `OCC(CO)OCn1cnc2c(O)n3ccnc3nc21`, the MIC in the test with Human alphaherpesvirus 2 [2] (setting [11]) is 2 µg/mL (≈ 7.16 µM); in the test on Human alphaherpesvirus 1 [4], 0.7 µg/mL (≈ 2.51 µM); with Vaccinia virus, 400 µg/mL (≈ 1430 µM); with Human alphaherpesvirus 2 [6] it was 2 µg/mL (≈ 7.16 µM); in the test on Human alphaherpesvirus 2 [7], 0.7 µg/mL (≈ 2.51 µM); against Human alphaherpesvirus 1 [8] it was 0.7 µg/mL (≈ 2.51 µM). Further, the results for the MIC in the test on Human alphaherpesvirus 1 [9] (setting [12]) and against Human alphaherpesvirus 1 [10] were 0.7 µg/mL (≈ 2.51 µM) and 400 µg/mL (≈ 1430 µM), respectively. This compound registered an MCC in test [5] of 400 µg/mL.

The values are drawn from ChEMBL document CHEMBL1134637, “Fluorescent tricyclic analogues of acyclovir and ganciclovir. A structure-antiviral activity study” (2001).
